BindingDB's records for doi:10.1002/cbic.200400135 (Max Planck Institute for Coal Research, 2004)

Key:
Test in all cases: Phosphatase Inhibition Assay
[1] = target: T1, M-phase inducer phosphatase 1 (Homo sapiens, UniProt P30304); conditions: pH 8; 37 °C
T1 sequence (P30304 whole entry): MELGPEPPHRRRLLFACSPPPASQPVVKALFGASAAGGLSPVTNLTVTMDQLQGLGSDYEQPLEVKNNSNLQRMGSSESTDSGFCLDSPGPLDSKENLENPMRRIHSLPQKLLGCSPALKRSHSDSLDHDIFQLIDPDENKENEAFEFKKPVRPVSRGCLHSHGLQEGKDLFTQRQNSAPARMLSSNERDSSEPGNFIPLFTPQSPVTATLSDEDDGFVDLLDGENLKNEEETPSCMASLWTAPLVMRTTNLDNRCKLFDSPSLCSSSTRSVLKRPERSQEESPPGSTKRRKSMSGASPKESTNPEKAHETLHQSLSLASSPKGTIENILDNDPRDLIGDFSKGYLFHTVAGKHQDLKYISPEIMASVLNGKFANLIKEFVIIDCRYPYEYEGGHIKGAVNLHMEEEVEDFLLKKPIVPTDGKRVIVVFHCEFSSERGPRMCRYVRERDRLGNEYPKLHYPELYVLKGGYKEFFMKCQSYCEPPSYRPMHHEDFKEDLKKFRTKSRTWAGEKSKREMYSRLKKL

[2] = target: Dual specificity protein phosphatase 3 (Homo sapiens, UniProt P51452); conditions: pH 6.5; 37 °C
Sequence of Dual specificity protein phosphatase 3 (P51452 whole entry): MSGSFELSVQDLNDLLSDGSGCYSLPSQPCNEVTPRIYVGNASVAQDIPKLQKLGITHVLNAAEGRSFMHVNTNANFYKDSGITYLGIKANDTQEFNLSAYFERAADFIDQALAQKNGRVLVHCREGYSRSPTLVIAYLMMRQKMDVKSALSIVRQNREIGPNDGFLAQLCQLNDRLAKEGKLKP

[3] = target: T2, Tyrosine-protein phosphatase non-receptor type 1 (Homo sapiens, UniProt P18031); conditions: pH 7.2; 37 °C
T2 sequence (P18031 whole entry): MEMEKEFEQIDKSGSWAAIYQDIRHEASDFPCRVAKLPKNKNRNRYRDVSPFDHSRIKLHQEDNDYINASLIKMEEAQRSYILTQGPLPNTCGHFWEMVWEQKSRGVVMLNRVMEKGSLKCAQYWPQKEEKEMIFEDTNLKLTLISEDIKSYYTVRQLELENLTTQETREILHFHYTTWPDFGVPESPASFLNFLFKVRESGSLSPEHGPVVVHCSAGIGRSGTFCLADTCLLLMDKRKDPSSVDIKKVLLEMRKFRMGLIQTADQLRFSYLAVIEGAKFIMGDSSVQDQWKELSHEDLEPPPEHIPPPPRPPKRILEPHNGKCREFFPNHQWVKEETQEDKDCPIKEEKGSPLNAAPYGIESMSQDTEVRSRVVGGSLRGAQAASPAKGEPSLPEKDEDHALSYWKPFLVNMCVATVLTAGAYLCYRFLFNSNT

IC50 [1] [µM] | IC50 [2] [µM] | IC50 [3] [µM] | Structure (SMILES)
> 50 | 41 | 24 | COC1=CC2=N/C1=C\c1ccc([nH]1)CCCC/C=C/CCCCCCCCCCC1=CC=C2O1 [Cyclic analogue, 8]
> 50 | 21 | 10 | CCc1ccc(/C=C2\N=C(c3ccc[nH]3)C=C2OC)[nH]1 [Acyclic analogue, 14]
> 50 | 30 | > 50 | COC1=CC2=N/C1=C\c1ccc([nH]1)CCCC/C=C/CCCc1cccc2c1 [Cyclic analogue, 9]
> 50 | 21 | 16 | COC1=CC(=O)N/C1=C\c1ccc(CCCC/C=C/CCCCC(=O)O)[nH]1 [Acyclic analogue, 18]
> 50 | 8 | 46 | C=CCCCCc1ccc(/C=C2\NC(=O)C=C2OC)[nH]1 [Acyclic analogue, 16]
> 50 | 11 | 11 | C=CCCCCc1ccc(/C=C2\N=C(c3ccc[nH]3)C=C2OC)[nH]1 [Acyclic analogue, 13]
> 50 | 28 | 23 | COC1=CC2=N/C1=C\c1ccc([nH]1)CCCC/C=C/CCCC1=CC=C2O1 [Cyclic analogue, 7]
> 50 | 15 | 10 | CC(C)[C@H]1c2cc3[nH]c2=C(c2ccc(-c4ccc[nH]4)o2)[C@@H]1CCCCCCCC=3 [Roseophilin analogue, 3]
> 50 | 9 | 12 | C=CC/C=C(/C)c1ccc(C2=N/C(=C\c3ccc(CCCCC=C)[nH]3)C(OC)=C2)[nH]1 [Acyclic analogue, 12]
> 50 | 39 | 28 | C=CCCCCc1ccc(/C=C2\N=C(c3ccc(CCCC=C)s3)C=C2OC)[nH]1 [Acyclic analogue, 15]

Structure (SMILES) | IC50 [1] [µM] | IC50 [2] [µM] | IC50 [3] [µM]
C/C(=C1\C=CC=N1)c1ccc(-c2ccc[nH]2)o1 | 40 | 4.9 | 
COc1cc(-c2[nH]ccc2Cl)oc1C1=c2[nH]c3cc2[C@H](C(C)C)[C@H]1CCCCCCCC=3 | 28 | 32 | 38
CCc1ccc(/C=C2\NC(=O)C=C2OC)[nH]1 [Acyclic analogue, 17] | > 50 | > 50 | > 50
C/C(=C1\C=CC=N1)c1ccc(-c2[nH]ccc2Cl)o1 [3-chloro-2-(5-{1-[(2Z)-2H-pyrrol-2-ylidene]ethyl}furan-2-yl)-1H-pyrrole, 4] | 34 | 9 | 6
COc1cc(-c2[nH]ccc2Cl)oc1C1=c2[nH]c3cc2[C@@H](C(C)C)[C@@H]1CCCCCCCC=3 [Roseophilin, 2] | 21 | 6 | 6
C=CCCCCc1ccc(/C=C2\N=C(c3ccc(CCCC=C)[nH]3)C=C2OC)[nH]1 [Acyclic analogue, 10] | > 50 | > 50 | > 50
C=CCCCCc1ccc(C=C2N=C(c3ccc(C(=O)CCC=C)[nH]3)C=C2OC)[nH]1 [Acyclic analogue, 11] | > 50 | > 50 | 32
